# “Also recorded” adds a separate entry of the source. Counter-ions that a name gives are not always drawn. Like-named read-outs stand apart in the source and are kept apart here. Ends that are not written are not given here.
# Experiments:
# [1] = tested on: urethane anaesthetized rats; experiment: Cardiovascular response (MAP, PP, HR) of drugs in urethane anaesthetized rats; format: in vivo, rat; settings: for decrease in HR after centhaquin in antagonist treated rats, compared to baseline / decrease in MAP after centhaquin in antagonist treated rats, compared to baseline / decrease in PP after centhaquin in antagonist treated rats, compared to baseline / potentiation of centhaquin hypotensive effect compared to vehicle treated rats / potentiation of centhaquin-induced decrease in HR (bradycardia) compared to vehicle treated rats: TAK-044 1 mg/kg or BMS-182874 9 mg/kg + centhaquin 0.15 mg/kg; for maximum decrease in PP after clonidine in antagonist treated rats, compared to baseline / reduction in MAP after clonidine in antagonist treated rats, compared with the baseline: TAK-044 1 mg/kg or BMS-182874 9 mg/kg + clonidine 10 μg/kg; for change in MAP, PP and HR, antagonist alone: TAK-044 1 mg/kg or BMS-182874 9 mg/kg alone; for Bradycardia, Centhaquin, percent change / Decrease in pulse pressure, Centhaquin, percent change / Hypotension, Centhaquin, percent change: centhaquin 0.33 mg/kg [sic], compared to centhaquin response in control rats; for fall in MAP / decrease in PP: compared to baseline
# From the text: Rats were anaesthetized with urethane (1.5 g/kg i.p.) and prepared for the determination of hemodynamic parameters (Gulati and Srimal, 1993; Gulati et al., 1997b). The anesthetized rats were shaved and immobilized to prepare for cannulation. A 2-3 cm incision was made above the femoral vein and artery, and the vessels were dissected and cleaned. The left femoral vein was cannulated (PE-50 tubing, Clay Adams, Parsipanny, N.J.) and secured for drug administration. An ultra-miniature Pressure transducer SPR-320 (2F Polyurethane), with a single pressure sensor side mounted at the tip (Millar Instruments, Houston, Tex.), was inserted in the left femoral artery to acquire the hemodynamic signals. Pressure transducer was connected to bridge amplifier (ML221 Bridge Amp; AD Instruments, Mountain View, Calif., USA) with Viking connector (AEC-10C) and the signals were continuously acquired at a sampling rate of 1000 S^−1 using Millar PowerLab 16/30 data acquisition system (AD Instruments, Mountain View, Calif., USA). MAP, HR, and PP were determined and analyzed with LabChart-5.00 software program (Millar Instruments). After the experiment was completed, the animals were euthanized with higher dose of urethane (3 gm/kg).
# The animals were allowed to stabilize for at least 20 min following surgical procedures.
# In the above studies, all drugs were injected through the left femoral vein and changes in MAP, HR, and PP after clonidine and centhaquin injection were recorded for 1 hour using Millar PowerLab 16/30 data acquisition system.
# rats = settings: clonidine given intravenously in cervical sectioned rats; cited from earlier work
# [2] = tested on: α-adrenergic receptors in the hypothalamus and medulla; settings: chronic administration in rats; with hypotension and bradycardia; cited from earlier work
# [3] = Arterial blood gas analysis before and one hour after drug; format: in vivo, rat
# From the text: Arterial blood pH, pO2, pCO2, Na^+, K^+, and lactate were monitored prior to and after drug administration. Blood samples were drawn from the arterial cannula using blood gas sampling syringes (Innovative Medical Technologies, Inc. Leawood, Kans.) and analyzed using a GEM Premier 3000 unit (Instrument Laboratory, Lexington, Mass.).
# Blood samples were drawn from the arterial cannula using blood gas sampling syringes (Innovative Medical Technologies, Inc. Leawood, Kans.) and analyzed using a GEM Premier 3000 unit (Instrument Laboratory, Lexington, Mass.).
# α2-adrenergic receptors = settings: higher for α2; cited from earlier work
# [4] = tested on: rat abdominal aortic ring; experiment: Clonidine response on the abdominal aortic ring; settings: for EC50: Rattus norvegicus, read-out: ED50 value, aortic ring contraction
# Experimental: The abdominal aorta was isolated and dissected out from urethane (1.5 g·kg^−1 i.p.) anesthetized rats and was transferred to Krebs bicarbonate buffer pH 7.4 (composition in mM, NaCl, 112.0; KCl, 4.7; KH2PO4, 1.2; MgSO4, 1.2; CaCl2, 2.5; NaHCO3, 25.0; glucose, 11.0) with continuous supply of 95% O2 and 5% CO2 at 37±1° C. The tissue was cut into ring segments (3 mm in length) and mounted in organ baths using 10 mm Radnoti glass ring supports. Extra care was taken while cutting and mounting the ring segment to prevent loss of endothelial layer. Tissue was equilibrated for 45 min by applying 2 g of tension with regular buffer change after every 15 min. Vessels were pre-contracted with 100 mM KCl to determine the viability. Clonidine-induced contractions of aortic ring were measured using Radnoti 8 unit tissue bath (Radnoti Glass Technology, Monrovia, Calif.) and the force transducer coupled with a Grass P7D polygraph. The dose response was recorded for 0.25, 0.5, 1, 2, 4, 6, 8, and 10 μM of clonidine with or without ET-1 (4 nM) treatment and ED50 value was calculated. Experiments were performed in Group 1: Vehicle+Clonidine (0.25 to 10 μM); and Group 2: ET-1 (4 nM)+Clonidine (0.25 to 10 μM) using (n=6) rats in each group.
# [5] = tested on: 5-HT1 receptors in the medulla; settings: cited from earlier work
# [6] = one hour after clonidine 90 μg/kg or centhaquin 0.45 mg/kg
# [7] = ET-1 300 ng/kg + prazosin 0.1 mg/kg + centhaquin 0.15 mg/kg
# [8] = ET-1 100 ng/kg + clonidine 10 μg/kg, compared to vehicle treated rats receiving clonidine
# [9] = ET-1 300 ng/kg + clonidine 10 μg/kg, compared to vehicle treated rats receiving clonidine
# [10] = ET-1 900 ng/kg + centhaquin 0.15 mg/kg, compared to vehicle treated rats receiving centhaquin
# [11] = ET-1 900 ng/kg + clonidine 10 μg/kg, compared to vehicle treated rats receiving clonidine
compound,measurement,setting,value
"Cc1noc(NS(=O)(=O)c2cccc3c(N(C)C)cccc23)c1C [BMS-182874, (5-Dimethylamino)-N-(3,4-dimethyl-5-isoxazolyl)-1-naphthalene sulfonamide hydrochloride]","potentiation of centhaquin induced decrease in HR, more than that produced by TAK-044 treatment","[1]; BMS-182874 9 mg/kg versus TAK-044 1 mg/kg, centhaquin 0.15 mg/kg",18.63%
same,"decrease in HR after centhaquin in antagonist treated rats, compared to baseline",[1],35.72%
same,"decrease in MAP after centhaquin in antagonist treated rats, compared to baseline",[1],43.46%
same,"decrease in PP after centhaquin in antagonist treated rats, compared to baseline",[1],49.68%
same,potentiation of centhaquin hypotensive effect compared to vehicle treated rats,[1],30.67%
same,potentiation of centhaquin-induced decrease in HR (bradycardia) compared to vehicle treated rats,[1],29.00%
same,"maximum decrease in PP after clonidine in antagonist treated rats, compared to baseline",[1],44.97%
same,"reduction in MAP after clonidine in antagonist treated rats, compared with the baseline",[1],29.44%
same,"change in MAP, PP and HR, antagonist alone",[1],no significant change
same,"Bradycardia, Centhaquin, percent change",[1],(29.00%)
same,"Decrease in pulse pressure, Centhaquin, percent change",[1],(28.72%)
same,"Hypotension, Centhaquin, percent change",[1],(30.67%)
"Clc1cccc(Cl)c1NC1=NCCN1 [Clonidine, N-(2,6-dichlorophenyl)-4,5-dihydro-1H-imidazol-2-amine]",decrease in HR,[1]; clonidine 10 μg/kg,20.84%
same,fall in MAP,[1]; clonidine 10 μg/kg i.v.,24.02%
same,decrease in PP,[1]; clonidine 10 μg/kg,33.81%
same,decrease in HR,[1]; clonidine 30 μg/kg,23.18%
same,fall in MAP,[1]; clonidine 30 μg/kg i.v.,26.15%
same,decrease in PP,[1]; clonidine 30 μg/kg,36.39%
same,decrease in HR,[1]; clonidine 90 μg/kg,23.19%
same,fall in MAP,[1]; clonidine 90 μg/kg i.v.,19.48%
same,decrease in PP,[1]; clonidine 90 μg/kg,34.27%
same,"dose-response effect on MAP, PP and HR","[1]; clonidine 10, 30, 90 μg/kg i.v., centhaquin 0.05, 0.15, 0.45 mg/kg i.v.","dose-dependent hypotension and bradycardia; also recorded: dose-dependent fall in mean arterial pressure (MAP), pulse pressure (PP), and a decrease in heart rate (HR)"
same,effect on blood pressure and heart rate,rats,did not produce any effect
same,effect of chronic administration on α-adrenergic receptors in the hypothalamus and medulla,[2],up-regulation
same,"changes in arterial blood pH, pO2, pCO2, Na^+, K^+, lactate and hematocrit",[3]; before versus one hour after clonidine 90 μg/kg or centhaquin 0.45 mg/kg,no significant changes
same,Hct,[3]; [6],50 ± 4%
same,K^+,[3]; [6],4.3 ± 0.6 mmol/L
same,Na^+,[3]; [6],139 ± 2 mmol/L
same,arterial blood pH,[3]; [6],7.28 ± 0.03
same,pCO2,[3]; [6],46 ± 4 mmHg
same,pO2,[3]; [6],100 ± 14 mmHg
same,binding affinity for α2-adrenergic receptors relative to α1-adrenoreceptors,α2-adrenergic receptors,approximately 10 fold
same,EC50,[4]; ET-1 (4 nM) treated aorta,1810 ± 40 nM
same,EC50,[4]; vehicle treated aorta,2640 ± 20 nM
same,percent contraction of aorta,"[4]; clonidine 2 μM, ET-1 (4 nM) treated aorta",75.95±1.36%
same,percent contraction of aorta,"[4]; clonidine 2 μM, vehicle treated aorta",51.017±1.70%
same,percent contraction of aorta,"[4]; clonidine 4 μM, ET-1 treated aorta",96.83±0.54%
same,percent contraction of aorta,"[4]; clonidine 4 μM, vehicle treated aorta",80.27±2.48%
same,contraction in rat abdominal aortic ring,[4]; clonidine 0.25-10 μM,dose-dependent (0.25-10 μM) contraction
same,effect of repeated administration on 5-HT1 receptors in the medulla,[5],up-regulation
COc1cc2nc(N3CCN(C(=O)c4ccco4)CC3)nc(N)c2cc1OC [Prazosin],effect of prazosin on changes produced in MAP by centhaquin in ET-1 treated rats,[1]; [7],completely (p<0.01) blocked
same,effect of prazosin on decrease in HR induced by centhaquin in ET-1 treated rats,[1]; [7],significantly (p<0.05) attenuated
same,effect of prazosin on decrease in PP induced by centhaquin in ET-1 treated rats,[1]; [7],significantly (p<0.001) attenuated
same,effect of prazosin on changes in MAP and HR by centhaquin in vehicle treated rats,[1]; prazosin 0.1 mg/kg + centhaquin 0.15 mg/kg,blocked
"ET-1: endogenous 21-residue peptide endothelin isopeptide, used as ET agonist (CSCSSLMDKECVYFCHLDIIW; not fully specified; ends and bridges not checked; UniProt P05305 53-73, looked up)","decrease in HR produced by centhaquin, ET-1 versus vehicle treated rats",[1]; ET-1 100 ng/kg + centhaquin 0.15 mg/kg,similar
same,attenuation of clonidine induced fall in PP,[1]; ET-1 100 ng/kg + clonidine 10 μg/kg,33.66%
same,attenuation of clonidine-induced decrease in HR,[1]; [8],18.01%
same,attenuation of clonidine-induced fall in MAP,[1]; [8],27.63%
same,effect on centhaquin-induced decrease in HR,[1]; ET-1 300 ng/kg + centhaquin 0.15 mg/kg,significantly attenuated
same,attenuation of clonidine-induced decrease in HR,[1]; [9],21.00%
same,attenuation of clonidine-induced decrease in MAP,[1]; [9],27.41%
same,attenuation of centhaquin-induced decrease in HR (increase in HR compared to untreated rats),[1]; [10],21.44%
same,attenuation of centhaquin-induced decrease in MAP (increase in MAP compared to untreated rats),[1]; [10],33.48%
same,attenuation of clonidine-induced decrease in HR (increase in HR compared to untreated rats),[1]; [11],37.42%
same,attenuation of clonidine-induced decrease in MAP (increase in MAP compared to untreated rats),[1]; [11],42.58%
same,"change in HR compared to baseline, ET-1 alone","[1]; ET-1 100, 300 and 900 ng/kg",no change
same,"change in MAP compared to baseline, ET-1 alone","[1]; ET-1 100, 300 and 900 ng/kg",fall (p<0.001) followed by significant rise
same,effect of ET-1 treatment on clonidine-induced fall in MAP,"[1]; ET-1 100, 300 and 900 ng/kg i.v., clonidine 10 μg/kg i.v., dose-dependent manner",significantly attenuated
same,effect of ET-1 treatment on centhaquin-induced fall in MAP,"[1]; ET-1 100, 300 and 900 ng/kg, centhaquin 0.15 mg/kg i.v., dose-dependent manner",significantly attenuated
same,attenuation of centhaquin-induced decrease in MAP,[1]; ET-1 100 and 300 ng/kg + centhaquin 0.15 mg/kg,small statistically insignificant attenuation
same,attenuation of clonidine induced fall in PP,[1]; ET-1 300 and 900 ng/kg + clonidine 10 μg/kg,"showed attenuation, but did not reach the level of statistical significance"
same,effect of ET-1 pretreatment on contractile response of clonidine,[4]; ET-1 4 nM pretreated aorta,significantly potentiated
cyclo [D-α-aspartyl-3-[(4-phenylpiperazin-1-yl) carbonyl]-L-alanyl-L-α-aspartyl-D-2-(2-thienyl)glycyl-L-leu-Cyl-D-tryptOphyljdisodium salt [TAK-044],"decrease in HR after centhaquin in antagonist treated rats, compared to baseline",[1],21.94%
same,"decrease in MAP after centhaquin in antagonist treated rats, compared to baseline",[1],32.31%
same,"decrease in PP after centhaquin in antagonist treated rats, compared to baseline",[1],46.49%
same,potentiation of centhaquin hypotensive effect compared to vehicle treated rats,[1],16.48%
same,potentiation of centhaquin-induced decrease in HR (bradycardia) compared to vehicle treated rats,[1],12.74%
same,"maximum decrease in PP after clonidine in antagonist treated rats, compared to baseline",[1],52.72%
same,"reduction in MAP after clonidine in antagonist treated rats, compared with the baseline",[1],36.59%
same,"change in MAP, PP and HR, antagonist alone",[1],no significant change
same,"Bradycardia, Centhaquin, percent change",[1],(12.74%)
same,"Decrease in pulse pressure, Centhaquin, percent change",[1],(23.83%)
same,"Hypotension, Centhaquin, percent change",[1],(16.48%)

# — patent US10828368B2, “Therapeutic treatments using centhaquin” (MIDWESTERN UNIVERSITY, priority 2009, dated 2020)
